This is an account of results in US8097585B2, “Methods of treating inflammation by administration of heme oxygenase-1 and products of heme degradation” (priority 2002, dated 2012).

Assay [1] has as its system B6AF1 splenocytes or purified T cells. The experiment in a line: Con A and anti-CD3 mAb mediated proliferation assay. It counts as cell-based, mouse. The protocol:
Con A and anti-CD3 mAb mediated proliferation assay. B6AF1 splenocytes or purified T cells were prepared according to the herein-described method and used as responder cells. Responders (2.5×10^5/well) were stimulated with either Con A (1 μg/ml) or anti-CD3 mAb (1 μg/ml) and cultured in a 96 well round bottom plates. Purified T cells (5×10^4/well) were cultured in anti-CD3 mAb (10 μg/ml) coated 96 well flat bottom plates in the presence of anti-CD28 mAb (1 μg/ml). Cells were cultured with or without biliverdin (at various concentrations) for 48 hours at 37° C., 95% air with 5% CO2. They were pulsed with ^3H-thymidine (1 μCi/well) 16 hours before termination of cell culture and ^3H-thymidine incorporation was measured by using a β-counter. These proliferation assays were performed in triplicate and were repeated 3 times.

The subject of assay [2] is neointimal formation in carotid arteries. Put plainly: Carotid balloon injury model, neointimal formation. It counts as in vivo, Lewis Rats. Particulars: 14 days. From the text:
Animals. Adult male Lewis Rats (LEW/CrlBR; Charles River Laboratories, Wilmington, Mass.) weighing 350-400 g were used in the balloon injury model. Animals were housed in accordance with the guidelines from the American Association for Laboratory Animal Care and research protocols were approved by the institutional animal care and use committee of the Beth Israel Deaconess Medical Center, Boston, Mass.
Balloon Injury model. After the exposure of the left common carotid and the left external carotid arteries, a 2F Fogarty catheter (Edwards Lifesciences LLC, Irvine, Calif.) was introduced via the external carotid artery and was advanced into the left common carotid artery, inflated to 2 atmospheres of pressure and pulled back to the point of bifurcation, then deflated. This procedure was repeated three times.
Experimental reagents and design. […]
Histomorphometric analysis. […] Images were analyzed by manual segmentation, tracing intima and media in each section. Areas and diameters were calculated by digital imaging software (AxioVision™, Carl Zeiss, Jena, Germany) as number of pixels corresponding to those areas and diameters. […] 24 sections from each group were statistically analyzed with StatView® software version 5.0 using ANOVA.

Another assay has as its system intestinal graft. Put plainly: Intestinal microvascular blood flow (laser Doppler). It counts as in vivo, LEW rats. As to conditions: BV. The protocol:
Measurement of Intestinal Blood Flow. Intestinal microvascular blood flow was monitored by placing the flat probe of a laser Doppler flowmeter (BLF 21D, Transonic Systems, Ithaca, N.Y.) on the serosal surface of the graft jejunum and ileum adjacent to the mesenteric border. Blood flows in SMA and marginal artery (MA) were also analyzed.
Measurement of Intestinal Blood Flow. Microvascular blood flow for in grafts preserved for 6 hours was measured using a laser Doppler flowmeter (BLF 21D, Transonic Systems, Ithaca, N.Y.) equipped with a flat probe. Intestinal microvascular blood flow was monitored by placing the probe on the serosal surface of the graft jejunum and ileum adjacent to the mesenteric border.

Where a name gives a salt, the structure may show the parent alone.

`C=CC1=C(C)/C(=C/C2=NC(=C\c3[nH]c(/C=C4\NC(=O)C(C)=C4C=C)c(C)c3CCC(=O)O)/C(CCC(=O)O)=C2C)NC1=O` [biliverdin, biliverdin dihydrochloride]: the “proliferation of purified T cells” value in assay [1] (anti-CD3 mAb plus anti-CD28 mAb co-stimulation) was “suppressed”. Moreover, the “ConA or anti-CD3 mAb driven T cell proliferation” value in assay [1] (biliverdin 50 μM) and in assay [1] (biliverdin 100 μM) was “significant suppressive effect” in each case. The “neointimal formation after balloon injury” value is recorded as “significantly inhibits neointimal formation” in assay [2] (local pre-treatment, instilled into common carotid artery for one hour) and “significantly inhibits neointimal formation” in assay [2] (systemic treatment, 50 μmol/kg i.p. at two time points). In addition, the “microvascular blood flow following transplantation” value in the assay with intestinal graft is “had no effect”.
